Laboratory results from article doi:10.1101/2023.04.18.537371v1 (bioRxiv, 2023).
Peptide text beside a SMILES is read from it.

Tests used:
OAT1 = OAT1 (Homo sapiens, UniProt Q4U2R8); test: Transporter inhibition in HEK293 cells; assay type: in vitro ADME
[1] = In vitro protein binding, rapid equilibrium dialysis; assay type: in vitro ADME; conditions: cynomolgus monkey, plasma
[2] = as above; assay type: in vitro ADME; conditions: beagle, dog, plasma
[3] = Bidirectional permeability and efflux in Caco-2 cells; assay type: in vitro ADME; conditions: human
Caco-2 cell monolayers = test: as above; assay type: in vitro ADME
monkey hepatocytes = test: Metabolite identification in hepatocytes; assay type: in vitro ADME; conditions: cryopreserved monkey hepatocytes, FC-12738 10 μM, 37 °C, 240 min, LC-UV-MS
CYP3A = test: CYP time-dependent inhibition assay; assay type: in vitro ADME, human
CYP2D6 = CYP2D6 (Homo sapiens, UniProt P10635); test: CYP450 inhibition assay; assay type: in vitro ADME
CYP2B6 = target: T1, CYP2B6 (Homo sapiens, UniProt P20813); test: biochemical; assay type: in vitro ADME
T1 sequence (P20813 1-491): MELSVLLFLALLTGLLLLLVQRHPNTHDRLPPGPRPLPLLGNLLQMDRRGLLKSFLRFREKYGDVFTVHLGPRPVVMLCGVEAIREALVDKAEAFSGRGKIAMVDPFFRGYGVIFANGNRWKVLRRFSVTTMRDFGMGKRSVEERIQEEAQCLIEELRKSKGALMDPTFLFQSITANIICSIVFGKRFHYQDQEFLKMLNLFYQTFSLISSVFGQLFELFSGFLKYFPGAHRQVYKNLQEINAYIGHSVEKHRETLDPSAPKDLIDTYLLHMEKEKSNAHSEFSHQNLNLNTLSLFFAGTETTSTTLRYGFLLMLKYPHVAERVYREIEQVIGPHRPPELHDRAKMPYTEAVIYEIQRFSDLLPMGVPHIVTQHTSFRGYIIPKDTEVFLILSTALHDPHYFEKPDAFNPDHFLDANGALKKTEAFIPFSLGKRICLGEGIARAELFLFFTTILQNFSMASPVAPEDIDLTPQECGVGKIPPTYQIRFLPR

Plasma stability = assay type: in vitro ADME, cynomolgus monkey
human hepatocytes [4] = test: Metabolite identification in hepatocytes; assay type: in vitro ADME; conditions: cryopreserved human hepatocytes, FC-12738 10 μM, 37 °C, 240 min, LC-UV-MS
OAT3 = OAT3 (Homo sapiens, UniProt Q8TCC7); test: Transporter inhibition in HEK293 cells; assay type: in vitro ADME
CD-1 mouse hepatocytes = test: Hepatocyte stability; assay type: in vitro ADME; conditions: 1.00 μM
human hepatocytes [5] = test: Concentration change of FC-12738 in the CYP induction assay; assay type: in vitro ADME; conditions: 24 hours, 37°C
OCT2 = OCT2 (Homo sapiens, UniProt O15244); test: Transporter inhibition in HEK293 cells; assay type: in vitro ADME
BCRP = BCRP (Homo sapiens, UniProt Q9UNQ0); test: Inhibition of BCRP in Caco-2 cells; assay type: in vitro ADME
SD rat hepatocytes = test: Hepatocyte stability; assay type: in vitro ADME; conditions: 1.00 μM
OATP1B1 = OATP1B1 (Homo sapiens, UniProt Q9Y6L6); test: Transporter inhibition in HEK293 cells; assay type: in vitro ADME
[6] = 2.00 μM, with 10.0 μM GF120918, Caco-2, 120 min
[7] = 10.0 μM, with 10.0 μM GF120918, Caco-2, 120 min
[8] = 10.0 μM, without GF120918, Caco-2, 120 min
[9] = 100 μM, with 10.0 μM GF120918, Caco-2, 120 min
[10] = 100 μM, without GF120918, Caco-2, 120 min

Sequence of CYP2D6 (P10635 whole entry): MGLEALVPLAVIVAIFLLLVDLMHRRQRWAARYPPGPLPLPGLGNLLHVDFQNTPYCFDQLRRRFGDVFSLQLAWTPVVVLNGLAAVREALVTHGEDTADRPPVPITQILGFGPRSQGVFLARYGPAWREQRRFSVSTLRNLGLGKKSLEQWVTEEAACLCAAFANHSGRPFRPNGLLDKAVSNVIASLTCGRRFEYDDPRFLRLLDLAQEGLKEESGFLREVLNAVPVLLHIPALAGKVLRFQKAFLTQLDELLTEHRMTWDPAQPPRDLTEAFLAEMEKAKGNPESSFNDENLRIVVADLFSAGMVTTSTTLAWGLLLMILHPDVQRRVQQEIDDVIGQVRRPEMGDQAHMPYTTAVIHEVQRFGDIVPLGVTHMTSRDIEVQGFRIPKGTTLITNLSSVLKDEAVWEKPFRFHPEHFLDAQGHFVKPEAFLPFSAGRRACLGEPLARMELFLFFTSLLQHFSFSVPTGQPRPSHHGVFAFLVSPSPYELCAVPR
Sequence of OAT3 (Q8TCC7 whole entry): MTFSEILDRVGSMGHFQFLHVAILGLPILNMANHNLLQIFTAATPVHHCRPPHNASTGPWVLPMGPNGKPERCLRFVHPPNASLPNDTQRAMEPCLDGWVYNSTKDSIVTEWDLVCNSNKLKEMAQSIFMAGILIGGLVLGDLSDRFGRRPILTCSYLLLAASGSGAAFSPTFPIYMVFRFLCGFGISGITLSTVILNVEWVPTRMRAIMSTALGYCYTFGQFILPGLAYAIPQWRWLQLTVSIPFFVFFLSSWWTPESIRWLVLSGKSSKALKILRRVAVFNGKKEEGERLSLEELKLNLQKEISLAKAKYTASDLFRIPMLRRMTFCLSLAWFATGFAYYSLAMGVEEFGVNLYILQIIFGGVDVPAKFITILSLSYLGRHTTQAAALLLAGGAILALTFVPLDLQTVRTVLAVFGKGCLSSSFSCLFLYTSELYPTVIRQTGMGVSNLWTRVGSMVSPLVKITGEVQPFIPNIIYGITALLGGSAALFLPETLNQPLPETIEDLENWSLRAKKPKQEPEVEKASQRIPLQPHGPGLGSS
Sequence of OAT1 (Q4U2R8 whole entry): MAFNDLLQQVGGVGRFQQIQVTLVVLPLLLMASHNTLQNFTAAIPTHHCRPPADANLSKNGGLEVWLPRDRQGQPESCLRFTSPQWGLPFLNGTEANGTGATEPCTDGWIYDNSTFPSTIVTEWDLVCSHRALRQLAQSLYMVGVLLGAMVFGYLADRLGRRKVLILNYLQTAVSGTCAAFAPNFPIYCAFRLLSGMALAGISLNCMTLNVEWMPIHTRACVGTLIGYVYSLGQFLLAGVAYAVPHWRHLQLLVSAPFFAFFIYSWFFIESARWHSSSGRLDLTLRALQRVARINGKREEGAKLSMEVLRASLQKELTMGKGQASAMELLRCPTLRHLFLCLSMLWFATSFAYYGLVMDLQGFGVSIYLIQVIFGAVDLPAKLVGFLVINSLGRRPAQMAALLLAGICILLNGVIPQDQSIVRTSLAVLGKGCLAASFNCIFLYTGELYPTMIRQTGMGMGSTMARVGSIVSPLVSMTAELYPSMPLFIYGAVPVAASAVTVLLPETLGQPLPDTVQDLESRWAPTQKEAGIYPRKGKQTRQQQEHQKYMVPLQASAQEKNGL
Sequence of OCT2 (O15244 whole entry): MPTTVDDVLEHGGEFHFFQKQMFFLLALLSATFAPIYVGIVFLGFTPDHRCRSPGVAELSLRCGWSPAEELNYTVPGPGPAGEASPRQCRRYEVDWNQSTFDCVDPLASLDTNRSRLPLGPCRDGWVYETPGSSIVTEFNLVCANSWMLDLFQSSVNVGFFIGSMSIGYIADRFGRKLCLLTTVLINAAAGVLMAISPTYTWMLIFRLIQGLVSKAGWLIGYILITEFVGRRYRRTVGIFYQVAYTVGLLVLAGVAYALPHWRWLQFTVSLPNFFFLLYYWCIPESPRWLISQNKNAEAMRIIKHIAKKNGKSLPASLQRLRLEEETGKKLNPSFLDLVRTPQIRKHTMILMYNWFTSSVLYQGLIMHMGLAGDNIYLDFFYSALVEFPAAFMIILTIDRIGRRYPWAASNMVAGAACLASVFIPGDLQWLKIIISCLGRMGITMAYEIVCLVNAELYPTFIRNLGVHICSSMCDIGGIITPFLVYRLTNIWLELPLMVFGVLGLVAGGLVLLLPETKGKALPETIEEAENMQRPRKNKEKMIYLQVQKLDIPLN
Sequence of OATP1B1 (Q9Y6L6 whole entry, species assumed): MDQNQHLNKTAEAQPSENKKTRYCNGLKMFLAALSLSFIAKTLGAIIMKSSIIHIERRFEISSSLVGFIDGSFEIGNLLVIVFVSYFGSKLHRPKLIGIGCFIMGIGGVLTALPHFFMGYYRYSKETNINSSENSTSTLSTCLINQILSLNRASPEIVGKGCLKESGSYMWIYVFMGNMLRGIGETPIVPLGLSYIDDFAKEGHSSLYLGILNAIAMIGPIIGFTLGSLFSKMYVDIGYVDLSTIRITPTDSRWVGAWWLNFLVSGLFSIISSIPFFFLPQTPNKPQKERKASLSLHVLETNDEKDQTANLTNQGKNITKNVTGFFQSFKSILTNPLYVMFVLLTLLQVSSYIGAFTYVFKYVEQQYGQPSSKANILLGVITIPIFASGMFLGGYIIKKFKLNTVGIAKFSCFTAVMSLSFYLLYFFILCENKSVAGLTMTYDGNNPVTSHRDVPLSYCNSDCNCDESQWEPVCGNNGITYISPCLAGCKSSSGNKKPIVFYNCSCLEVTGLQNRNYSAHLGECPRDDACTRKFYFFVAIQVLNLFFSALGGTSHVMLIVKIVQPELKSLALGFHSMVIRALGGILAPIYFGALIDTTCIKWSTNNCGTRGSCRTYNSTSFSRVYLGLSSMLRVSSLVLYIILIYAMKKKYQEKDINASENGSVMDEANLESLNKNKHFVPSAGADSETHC
Sequence of BCRP (Q9UNQ0 whole entry): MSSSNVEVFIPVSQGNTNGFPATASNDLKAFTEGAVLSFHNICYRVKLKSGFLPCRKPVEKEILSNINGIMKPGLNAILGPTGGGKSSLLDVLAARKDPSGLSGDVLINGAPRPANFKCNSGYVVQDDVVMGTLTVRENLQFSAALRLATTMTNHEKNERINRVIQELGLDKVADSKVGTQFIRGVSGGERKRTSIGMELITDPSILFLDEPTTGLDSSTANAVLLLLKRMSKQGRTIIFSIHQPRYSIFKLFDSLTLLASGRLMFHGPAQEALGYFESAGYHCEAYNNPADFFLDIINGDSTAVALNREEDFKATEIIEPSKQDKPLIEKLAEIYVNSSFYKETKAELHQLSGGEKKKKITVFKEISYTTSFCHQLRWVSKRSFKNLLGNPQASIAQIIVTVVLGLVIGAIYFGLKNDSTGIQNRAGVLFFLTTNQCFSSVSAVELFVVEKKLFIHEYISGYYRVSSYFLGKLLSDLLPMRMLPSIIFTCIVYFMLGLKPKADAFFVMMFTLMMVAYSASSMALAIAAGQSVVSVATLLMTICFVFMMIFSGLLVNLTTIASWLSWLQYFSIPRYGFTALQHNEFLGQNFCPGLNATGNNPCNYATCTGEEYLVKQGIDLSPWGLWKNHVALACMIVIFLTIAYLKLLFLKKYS

## CC(C)[C@@H](NC(=O)[C@H](N)Cc1ccc(O)cc1)C(=O)N[C@H](CC(=O)O)C(=O)N[C@H](CCCCN)C(=O)N[C@H](CCCNC(=N)N)C(=O)O [FC-12738, (D-Tyr)-(D-Val)-(D-Asp)-(D-Lys)-(D-Arg)] (HELM PEPTIDE1{[dY].[dV].[dD].[dK].[dR]}$$$$V2.0)
OAT1
  IC50: > 100 µM
[1]
  fraction unbound at 6 h, 0.2 µM: 0.538
  fraction unbound at 6 h, 10 µM: 0.736
[2]
  fraction unbound at 6 h, 0.2 µM: 0.492
  fraction unbound at 6 h, 2 µM: 0.461
  fraction unbound at 6 h, 10 µM: 0.691
[3]; Caco-2
  efflux ratio at 120 min, 10 μM: 0.88
  efflux ratio at 120 min, 100 μM: 1.24
[3]; Caco-2, with GF120918 10.0 μM
  efflux ratio at 120 min, 10 μM: 1.13
Caco-2 cell monolayers; [6]
  Mean %Solution Recovery A to B: <92.9%
  Mean %Solution Recovery B to A: <96.5%
Caco-2 cell monolayers; [7]
  Mean %Solution Recovery A to B: 89.9%
  Mean %Solution Recovery B to A: 96.5%
Caco-2 cell monolayers; [8]
  Mean %Solution Recovery A to B: 90.2%
  Mean %Solution Recovery B to A: 100.5%
Caco-2 cell monolayers; [9]
  Efflux Ratio (ERi): 1.23
  Mean %Solution Recovery A to B: 86.9%
  Mean %Solution Recovery B to A: 97.0%
Caco-2 cell monolayers; [10]
  Mean %Solution Recovery A to B: 89.1%
  Mean %Solution Recovery B to A: 95.3%
Caco-2 cell monolayers; 2.00, 10.0 and 100 μM
  Permeability across the Caco-2 cell monolayer (conclusion): low permeable
Monkey hepatocytes
  Relative Abundance (UV%): 89.24%
CYP3A; human, pooled human liver microsomes
  IC50 at 30 min: > 100 µM
CYP3A; midazolam and testosterone as substrates, cutoff IC50 shift >= 1.5-fold
  Time-dependent inhibition of CYP3A: no time-dependent inhibition
CYP2D6
  IC50: > 100 µM
CYP2B6
  IC50: > 100 µM
CYP2B6; cutoff IC50 shift >= 1.5-fold, 30 min pre-incubation ± NADPH
  Time-dependent inhibition of CYP2B6: no time-dependent inhibition
Plasma stability; cynomolgus monkey plasma, 2.00 μM, 37.0 °C, up to 120 min
  half-life: > 6.212 h
Plasma stability; monkey, plasma
  remaining at 10 min, 2 μM: 105%
  remaining at 0.5 h, 2 μM: 105%
  remaining at 1 h, 2 μM: 105%
  remaining at 2 h, 2 μM: 102%
Human hepatocytes [4]
  Relative Abundance (UV%): 91.82%
OAT3
  IC50: > 100 µM
CD-1 mouse hepatocytes; cryopreserved CD-1 mouse hepatocytes, 37.0°C, 120 min
  intrinsic clearance CLint(hep): < 1.9 μL/min/10^6 cells
CD-1 mouse hepatocytes; cryopreserved CD-1 mouse hepatocytes, 37.0°C, 120 min, LC-MS/MS
  half-life: > 6.212 h
CD-1 mouse hepatocytes; scaled from CD-1 mouse hepatocytes
  hepatic clearance CLint(liver): < 22.1 mL/min/kg
Human hepatocytes [5]; human hepatocytes Donor 1, 10.0 μM
  % remaining: 69.1%
Human hepatocytes [5]; human hepatocytes Donor 2, 15.0 μM
  % remaining: 89.3%
Human hepatocytes [5]; human hepatocytes Donor 3, 10.0 μM
  % remaining: 61.0%
OCT2
  IC50: > 100 µM
BCRP
  IC50: > 100 µM
SD rat hepatocytes; cryopreserved SD rat hepatocytes, 37.0°C, 120 min
  intrinsic clearance CLint(hep): < 1.9 μL/min/10^6 cells
SD rat hepatocytes; cryopreserved SD rat hepatocytes, 37.0°C, 120 min, LC-MS/MS
  half-life: > 6.212 h
SD rat hepatocytes; scaled from SD rat hepatocytes
  hepatic clearance CLint(liver): < 8.7 mL/min/kg
OATP1B1
  IC50: > 100 µM
